For assay [1], the system named is antibodies in sera from SARS patients (sera 1a, 1b, 2, 6, 37, 62, London, SARS-yellow, SARS-green). In kind it is binding, human. On the set-up: Binding of serum 6 to linear peptides of protein X1 of SARS-CoV Urbani / Binding of serum 37 to linear peptides of protein X1 of SARS-CoV Urbani / Binding of serum 6 to looped/cyclic peptide (PEPSCAN-ELISA) / Binding of serum 37 to looped/cyclic peptide (PEPSCAN-ELISA) / Binding of serum 37 to looped/cyclic peptides of protein X1 of SARS-CoV Urbani / Binding of serum 6 to linear peptides of protein X2 / Binding of serum 37 to linear peptides of protein X2 / Binding of serum 37 to looped/cyclic peptides of protein X2 of SARS-CoV Urbani / Binding of serum 6 to linear peptides of protein M of SARS-CoV Urbani / Binding of serum 37 to linear peptides of protein M of SARS-CoV Urbani / Binding of serum 6 to looped/cyclic peptides of protein M of SARS-CoV Urbani / Binding of serum 37 to looped/cyclic peptides of protein M of SARS-CoV Urbani / Binding of serum 6 to linear peptides of protein X3 of SARS-CoV Urbani / Binding of serum 37 to linear peptides of protein X3 of SARS-CoV Urbani / Binding of serum 37 to looped/cyclic peptides of protein X3 of SARS-CoV Urbani / Binding of serum 6 to linear peptides of protein X4 of SARS-CoV Urbani / Binding of serum 37 to linear peptides of protein X4 of SARS-CoV Urbani / Binding of serum 37 to looped/cyclic peptides of protein X4 of SARS-CoV Urbani / Binding of serum 6 to linear peptides of protein X5 of SARS-CoV Urbani / Binding of serum 37 to linear peptides of protein X5 of SARS-CoV Urbani / Binding of serum 37 to looped/cyclic peptides of protein X5 of SARS-CoV Urbani / Binding of serum 6 to linear peptides of protein N of SARS-CoV Urbani / Binding of serum 37 to linear peptides of protein N of SARS-CoV Urbani / Binding of serum 6 to linear peptide (PEPSCAN-ELISA) / Binding of serum 1a to looped/cyclic peptides of protein N of SARS-CoV Urbani / Binding of serum 1b to looped/cyclic peptides of protein N of SARS-CoV Urbani / Binding of serum 2 to looped/cyclic peptides of protein N of SARS-CoV Urbani / Binding of serum 6 to looped/cyclic peptides of protein N of SARS-CoV Urbani / Binding of serum 37 to looped/cyclic peptides of protein N of SARS-CoV Urbani / Binding of serum 62 to looped/cyclic peptides of protein N of SARS-CoV Urbani / Binding of serum London to looped/cyclic peptides of protein N of SARS-CoV Urbani / Binding of serum SARS-green to looped/cyclic peptides of protein N of SARS-CoV Urbani: unit not given here.

Assay [2] deals with control sera (pooled serum of ten healthy LUMC hospital workers; commercial negative donor pooled serum from the Dutch bloodbank). It counts as binding, human. Also noted: Binding of Control serum LUMC to linear peptides / Binding of Control serum Blood-bank to linear peptides / Binding of Control serum LUMC to looped peptides / Binding of Control Serum Blood-Bank to Looped peptides / Binding of Control serum LUMC to linear peptides of the protein M of SARS-CoV Urbani / Binding of Control serum Blood-bank to linear peptides of the protein M of SARS-CoV Urbani / Binding of Control serum LUMC to looped peptides of the protein M of SARS-CoV Urbani / Binding of Control Serum Blood-Bank to Looped peptides of the protein M of SARS-CoV Urbani: unit not given here.

Assay [3] has as its system rabbit serum obtained by immunizing a rabbit with the SARS-CoV strain Frankfurt 1. In kind it is binding. On the set-up: Binding of a rabbit serum to linear peptides / Binding of a rabbit serum to looped peptides / Rabbit serum linear peptides / Rabbit serum looped peptides / Binding of a rabbit serum to linear peptides of protein N of SARS-CoV Urbani (Rabbit serum linear peptides) / Binding of a rabbit serum to looped/cyclic peptides of protein N of SARS-CoV Urbani (Rabbit serum looped peptides): unit not given here.

As to TSCELYHYQECVRGT, in assay [1], the “Binding of serum 1a to linear peptides of protein X4 of SARS-CoV Urbani” value turned out to be 0.7, the “Binding of serum 1a to looped/cyclic peptides of protein X4 of SARS-CoV Urbani” value worked out at 0.9, the “Binding of serum 1b to linear peptides of protein X4 of SARS-CoV Urbani” value was 0.6 and the “Binding of serum 1b to looped/cyclic peptides of protein X4 of SARS-CoV Urbani” value stood at 0.9. Further, in assay [1], the “Binding of serum 2 to linear peptides of protein X4 of SARS-CoV Urbani” value is on record as 0.3, the “Binding of serum 2 to looped/cyclic peptides of protein X4 of SARS-CoV Urbani” value is listed as 0.7, the “Binding of serum 6 to linear peptides of protein X4 of SARS-CoV Urbani” value came to 0.7 and the “Binding of serum 6 to looped/cyclic peptides of protein X4 of SARS-CoV Urbani” value is 0.9. In addition, in assay [1], the “Binding of serum 37 to linear peptides of protein X4 of SARS-CoV Urbani” value is listed as 0.7, the “Binding of serum 37 to looped/cyclic peptides of protein X4 of SARS-CoV Urbani” value came to 0.7, the “Binding of serum 62 to linear peptides of protein X4 of SARS-CoV Urbani” value is given as 0.8 and the “Binding of serum 62 to looped/cyclic peptides of protein X4 of SARS-CoV Urbani” value came out at 0.7. Further, in assay [1], the “Binding of serum London to linear peptides of protein X4 of SARS-CoV Urbani” value is reported as 0.7, the “Binding of serum London to looped/cyclic peptides of protein X4 of SARS-CoV Urbani” value is 0.4, the “Binding of serum SARS-green to linear peptides of protein X4 of SARS-CoV Urbani” value is on record as 0.5 and the “Binding of serum SARS-green to looped/cyclic peptides of protein X4 of SARS-CoV Urbani” value is recorded as 0.7. In addition, in assay [1], the “Binding of serum SARS-yellow to linear peptides of protein X4 of SARS-CoV Urbani” value was 0.3 and the “Binding of serum SARS-yellow to looped/cyclic peptides of protein X4 of SARS-CoV Urbani” value came out at 0.4. Moreover, in assay [2], the “Binding of Control Serum Blood-Bank to Looped peptides” value was determined as 0.8, the “Binding of Control serum Blood-bank to linear peptides” value worked out at 0.6, the “Binding of Control serum LUMC to linear peptides” value is reported as 0.6 and the “Binding of Control serum LUMC to looped peptides” value worked out at 0.8. In assay [3], the “Rabbit serum linear peptides” value is recorded as 0.4 and the “Rabbit serum looped peptides” value was 0.2.
Take TSLLKTHRMCKYTQS: in assay [1], the “Binding of serum 1a to linear peptides of protein X2” value amounted to 0.7, the “Binding of serum 1a to looped/cyclic peptides of protein X2 of SARS-CoV Urbani” value is listed as 0.4, the “Binding of serum 1b to linear peptides of protein X2” value is 0.7 and the “Binding of serum 1b to looped/cyclic peptides of protein X2 of SARS-CoV Urbani” value is given as 0.3. In assay [1], the “Binding of serum 2 to linear peptides of protein X2” value is 0.6, the “Binding of serum 2 to looped/cyclic peptides of protein X2 of SARS-CoV Urbani” value was determined as 0.2, the “Binding of serum 6 to linear peptides of protein X2” value is 0.5 and the “Binding of serum 6 to looped/cyclic peptides of protein X2 of SARS-CoV Urbani” value stood at 0.2. In assay [1], the “Binding of serum 37 to linear peptides of protein X2” value stood at 0.7, the “Binding of serum 37 to looped/cyclic peptides of protein X2 of SARS-CoV Urbani” value was determined as 0.2, the “Binding of serum 62 to linear peptides of protein X2” value was 0.7 and the “Binding of serum 62 to looped/cyclic peptides of protein X2 of SARS-CoV Urbani” value turned out to be 0.4. Further, in assay [1], the “Binding of serum London to linear peptides of protein X2” value is 0.5, the “Binding of serum London to looped/cyclic peptides of protein X2 of SARS-CoV Urbani” value amounted to 0.2, the “Binding of serum SARS-green to linear peptides of protein X2” value is reported as 0.6 and the “Binding of serum SARS-green to looped/cyclic peptides of protein X2 of SARS-CoV Urbani” value stood at 0.2. Moreover, in assay [1], the “Binding of serum SARS-yellow to linear peptides of protein X2” value worked out at 0.8 and the “Binding of serum SARS-yellow to looped/cyclic peptides of protein X2 of SARS-CoV Urbani” value amounted to 0.3. Further, in assay [2], the “Binding of Control Serum Blood-Bank to Looped peptides” value worked out at 0.4, the “Binding of Control serum Blood-bank to linear peptides” value is reported as 1.0, the “Binding of Control serum LUMC to linear peptides” value came to 0.9 and the “Binding of Control serum LUMC to looped peptides” value was 0.4. In assay [3], the “Binding of a rabbit serum to linear peptides” value came to 0.4 and the “Binding of a rabbit serum to looped peptides” value amounted to 0.4.
As to TSLSLHKLLQTLVLK, in assay [1], the “Binding of serum 1a to linear peptides of protein X2” value came out at 0.7, the “Binding of serum 1a to looped/cyclic peptides of protein X2 of SARS-CoV Urbani” value stood at 0.5, the “Binding of serum 1b to linear peptides of protein X2” value was found to be 0.6 and the “Binding of serum 1b to looped/cyclic peptides of protein X2 of SARS-CoV Urbani” value came to 0.4. Further, in assay [1], the “Binding of serum 2 to linear peptides of protein X2” value is reported as 0.5, the “Binding of serum 2 to looped/cyclic peptides of protein X2 of SARS-CoV Urbani” value is listed as 0.3, the “Binding of serum 6 to linear peptides of protein X2” value is on record as 1.0 and the “Binding of serum 6 to looped/cyclic peptides of protein X2 of SARS-CoV Urbani” value is recorded as 0.3. Further, in assay [1], the “Binding of serum 37 to linear peptides of protein X2” value is on record as 0.6, the “Binding of serum 37 to looped/cyclic peptides of protein X2 of SARS-CoV Urbani” value came out at 0.4, the “Binding of serum 62 to linear peptides of protein X2” value is 0.7 and the “Binding of serum 62 to looped/cyclic peptides of protein X2 of SARS-CoV Urbani” value was 0.6. In assay [1], the “Binding of serum London to linear peptides of protein X2” value amounted to 0.6, the “Binding of serum London to looped/cyclic peptides of protein X2 of SARS-CoV Urbani” value is recorded as 0.2, the “Binding of serum SARS-green to linear peptides of protein X2” value is recorded as 0.7 and the “Binding of serum SARS-green to looped/cyclic peptides of protein X2 of SARS-CoV Urbani” value was 0.4. Further, in assay [1], the “Binding of serum SARS-yellow to linear peptides of protein X2” value is listed as 0.6 and the “Binding of serum SARS-yellow to looped/cyclic peptides of protein X2 of SARS-CoV Urbani” value is on record as 0.5. Moreover, in assay [2], the “Binding of Control Serum Blood-Bank to Looped peptides” value is listed as 0.6, the “Binding of Control serum Blood-bank to linear peptides” value is on record as 0.9, the “Binding of Control serum LUMC to linear peptides” value is given as 0.6 and the “Binding of Control serum LUMC to looped peptides” value was found to be 0.6. Further, in assay [3], the “Binding of a rabbit serum to linear peptides” value turned out to be 0.2 and the “Binding of a rabbit serum to looped peptides” value amounted to 0.5.
For TSRTLSYYKLGASQR, in assay [1], the “Binding of serum 1a to linear peptides of protein M of SARS-CoV Urbani” value was determined as 0.7, the “Binding of serum 1a to looped/cyclic peptides of protein M of SARS-CoV Urbani” value is recorded as 0.7, the “Binding of serum 1b to linear peptides of protein M of SARS-CoV Urbani” value came to 0.7 and the “Binding of serum 1b to looped/cyclic peptides of protein M of SARS-CoV Urbani” value came out at 0.3. For the same sequence, in assay [1], the “Binding of serum 2 to linear peptides of protein M of SARS-CoV Urbani” value is reported as 0.7, the “Binding of serum 2 to looped/cyclic peptides of protein M of SARS-CoV Urbani” value is 0.7, the “Binding of serum 6 to linear peptides of protein M of SARS-CoV Urbani” value came out at 0.9 and the “Binding of serum 6 to looped/cyclic peptides of protein M of SARS-CoV Urbani” value was determined as 1.3. Also, in assay [1], the “Binding of serum 37 to linear peptides of protein M of SARS-CoV Urbani” value was found to be 0.7, the “Binding of serum 37 to looped/cyclic peptides of protein M of SARS-CoV Urbani” value amounted to 0.6, the “Binding of serum 62 to linear peptides of protein M of SARS-CoV Urbani” value is 0.5 and the “Binding of serum 62 to looped/cyclic peptides of protein M of SARS-CoV Urbani” value was found to be 0.6. Moreover, in assay [1], the “Binding of serum London to linear peptides of protein M of SARS-CoV Urbani” value was 0.5, the “Binding of serum London to looped/cyclic peptides of protein M of SARS-CoV Urbani” value is given as 0.7, the “Binding of serum SARS-green to linear peptides of protein M of SARS-CoV Urbani” value is 0.7 and the “Binding of serum SARS-green to looped/cyclic peptides of protein M of SARS-CoV Urbani” value is reported as 0.3. In assay [1], the “Binding of serum SARS-yellow to linear peptides of protein M of SARS-CoV Urbani” value was 0.5 and the “Binding of serum SARS-yellow to looped/cyclic peptides of protein M of SARS-CoV Urbani” value was found to be 0.9. In assay [2], the “Binding of Control Serum Blood-Bank to Looped peptides of the protein M of SARS-CoV Urbani” value is 0.6, the “Binding of Control serum Blood-bank to linear peptides of the protein M of SARS-CoV Urbani” value was found to be 0.9, the “Binding of Control serum LUMC to linear peptides of the protein M of SARS-CoV Urbani” value worked out at 1.0 and the “Binding of Control serum LUMC to looped peptides of the protein M of SARS-CoV Urbani” value is on record as 0.8. In assay [3], the “Rabbit serum linear peptides” value turned out to be 0.3 and the “Rabbit serum looped peptides” value was determined as 1.1.

The record behind these values is patent US20070128217A1 (priority 2003, published 2007).
